Laboratory results as given in patent publication US8158810B2 (Gilead Sciences, Inc., priority 2006, dated 2012).

Experiments:
hMAO-A = target: T1, hMAO-A (Homo sapiens, UniProt P21397); assay: MAO-A inhibition assay; assay type: biochemical; conditions: No = no inhibition; for hMAO-A inhibition up to 10 μM: printed in the IC50 hMAO-A column
T1 construct: purchased Sigma M7316
T1 sequence (P21397 1-527): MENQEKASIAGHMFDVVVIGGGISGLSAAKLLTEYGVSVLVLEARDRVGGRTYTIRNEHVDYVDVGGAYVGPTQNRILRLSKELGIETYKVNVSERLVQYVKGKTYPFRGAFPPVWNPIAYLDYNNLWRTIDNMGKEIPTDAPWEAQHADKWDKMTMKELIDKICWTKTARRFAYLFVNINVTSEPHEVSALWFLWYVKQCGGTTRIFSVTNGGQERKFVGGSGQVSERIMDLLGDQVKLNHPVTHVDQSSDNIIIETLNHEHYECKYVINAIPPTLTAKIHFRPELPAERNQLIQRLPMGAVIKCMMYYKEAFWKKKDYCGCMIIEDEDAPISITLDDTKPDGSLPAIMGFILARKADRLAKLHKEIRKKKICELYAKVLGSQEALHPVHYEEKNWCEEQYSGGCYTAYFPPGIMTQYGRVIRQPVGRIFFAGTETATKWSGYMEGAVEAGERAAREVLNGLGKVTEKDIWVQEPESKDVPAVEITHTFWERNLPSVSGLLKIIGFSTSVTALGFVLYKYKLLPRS
Experimental: (§1) MAO-A (Sigma M7316) and MAO-B (Sigma M7441) inhibition assays were conducted in 96-well micro-plates according to the method described by Zhou et al. [Analytical Biochemistry 253, 169-174, 1997]. […] Reactions were initiated by the addition of a pre-mixed solution of tyramine, horseradish peroxidase and Amplex Red, and were allowed to proceed at 37° C. for 30 min. Enzyme activities were determined by measuring absorbance at 570 nm (SpectralMax Plate reader), absorbance of oxidized Amplex Red generated by this horseradish peroxidase-coupled reaction. Nonspecifically formed products were determined in the presence of 2 and 10 µM clorgyline and deprenyl for MAO-A and MAO-B, respectively. IC50 values were determined by fitting concentration-inhibition data to sigmoidal dose-response curves with two-floating parameters: IC50 and Hill coefficient.

hMAO-B = target: T2, hMAO-B (Homo sapiens, UniProt P27338); assay: MAO-B inhibition assay; assay type: biochemical; conditions: No = no inhibition; for hMAO-B inhibition at 10 μM: printed in the IC50 hMAO-B column
T2 construct: purchased Sigma M7441
T2 sequence (P27338 1-520): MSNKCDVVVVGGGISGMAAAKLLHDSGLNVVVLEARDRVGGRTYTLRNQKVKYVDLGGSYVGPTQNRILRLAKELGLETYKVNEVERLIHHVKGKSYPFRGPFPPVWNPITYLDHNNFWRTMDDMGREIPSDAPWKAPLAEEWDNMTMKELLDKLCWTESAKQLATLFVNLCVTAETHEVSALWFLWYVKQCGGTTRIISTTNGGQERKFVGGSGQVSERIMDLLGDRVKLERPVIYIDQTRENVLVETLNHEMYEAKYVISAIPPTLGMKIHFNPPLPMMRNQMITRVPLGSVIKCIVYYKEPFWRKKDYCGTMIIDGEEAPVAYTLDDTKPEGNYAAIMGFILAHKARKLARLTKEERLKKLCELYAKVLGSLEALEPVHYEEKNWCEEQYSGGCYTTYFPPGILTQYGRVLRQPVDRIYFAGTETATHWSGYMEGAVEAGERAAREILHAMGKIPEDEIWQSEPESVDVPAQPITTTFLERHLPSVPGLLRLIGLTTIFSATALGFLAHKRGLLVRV
Experimental: as §1

Row | SMILES | hMAO-A inhibition up to 10 μM (hMAO-A) | hMAO-B inhibition up to 10 μM (hMAO-B) | other results
1 | O=c1c(-c2ccc(O)cc2)coc2cc(OCc3noc(-c4ccc(F)cc4)n3)ccc12 [PT-11, 7-{[5-(4-fluorophenyl)(1,2,4-oxadiazol-3-yl)]methoxy}-3-(4-hydroxyphenyl)chromen-4-one] | No | – | hMAO-B inhibition at 10 μM (hMAO-B; listed as PT-104, 10 µM): No
2 | O=c1c(-c2ccc(O)cc2)coc2cc(OCc3coc(-c4cccc(C(F)(F)F)c4)n3)ccc12 [PT-12, 3-(4-hydroxyphenyl)-7-({2-[3-(trifluoromethyl)phenyl](1,3-oxazol-4-yl)}methoxy)chromen-4-one] | No | – | hMAO-B inhibition at 10 μM (hMAO-B): No
3 | O=c1c(-c2ccc(O)cc2)coc2cc(OCc3coc(-c4cc(F)cc(C(F)(F)F)c4)n3)ccc12 [PT-13, 7-({2-[5-fluoro-3-(trifluoromethyl)phenyl](1,3-oxazol-4-yl)}methoxy)-3-(4-hydroxyphenyl)chromen-4-one] | No | – | hMAO-B inhibition at 10 μM (hMAO-B): No
4 | O=c1c(-c2ccc(O)cc2)coc2cc(OCc3coc(-c4cc(F)cc(F)c4)n3)ccc12 [PT-14, 7-{[2-(3,5-difluorophenyl)(1,3-oxazol-4-yl)]methoxy}-3-(4-hydroxyphenyl)chromen-4-one] | No | – | hMAO-B inhibition at 10 μM (hMAO-B): No
5 | O=c1c(-c2ccc(O)cc2)coc2cc(OCc3coc(-c4ccc(F)cc4)n3)ccc12 [PT-16, 7-{[2-(4-fluorophenyl)(1,3-oxazol-4-yl)]methoxy}-3-(4-hydroxyphenyl)chromen-4-one] | No | – | hMAO-B inhibition at 10 μM (hMAO-B): No
6 | O=c1c(-c2ccc(O)cc2)coc2cc(OCc3noc(-c4ccccc4)n3)ccc12 [PT-24, 3-(4-hydroxyphenyl)-7-[(5-phenyl(1,2,4-oxadiazol-3-yl))methoxy]chromen-4-one] | – | – | hMAO-A inhibition up to 40 μM (hMAO-A): No; hMAO-B inhibition up to 40 μM (hMAO-B; up to 40 μM): No
7 | N#Cc1cccc(COc2ccc3c(=O)c(-c4ccc(O)cc4)coc3c2)c1 [PT-25, 3-{[3-(4-hydroxyphenyl)-4-oxochromen-7-yloxy]methyl}benzenecarbonitrile] | No | No | –
8 | COc1ccc(COc2ccc3c(=O)c(-c4ccc(O)cc4)coc3c2)cc1C(F)(F)F [PT-27, 3-(4-hydroxyphenyl)-7-{[4-methoxy-3-(trifluoromethyl)phenyl]methoxy}chromen-4-one] | No | No | –
9 | O=c1c(-c2ccc(O)cc2)coc2cc(OCc3noc(-c4cc(F)cc(C(F)(F)F)c4)n3)ccc12 [PT-29, 7-({5-[3-fluoro-5-(trifluoromethyl)phenyl](1,2,4-oxadiazol-3-yl)}methoxy)-3-(4-hydroxyphenyl)chromen-4-one] | – | – | hMAO-A inhibition up to 30 μM (hMAO-A): No; hMAO-B inhibition up to 30 μM (hMAO-B): No
10 | O=c1c(-c2ccc(O)cc2)coc2cc(OCc3noc(-c4ccc(F)c(C(F)(F)F)c4)n3)ccc12 [PT-30, 7-({5-[4-fluoro-3-(trifluoromethyl)phenyl](1,2,4-oxadiazol-3-yl)}methoxy)-3-(4-hydroxyphenyl)chromen-4-one] | No | No | –
11 | O=c1c(-c2ccc(O)cc2)coc2cc(OCc3noc(-c4cc(C(F)(F)F)ccc4C(F)(F)F)n3)ccc12 [PT-31, 7-({5-[2,5-bis(trifluoromethyl)phenyl](1,2,4-oxadiazol-3-yl)}methoxy)-3-(4-hydroxyphenyl)chromen-4-one] | No | No | –
12 | C=CCOC(=O)c1cccc(-c2nc(COc3ccc4c(=O)c(-c5ccc(O)cc5)coc4c3)no2)c1 [PT-32, prop-2-enyl 3-(3-{[3-(4-hydroxyphenyl)-4-oxochromen-7-yloxy]methyl}-1,2,4-oxadiazol-5-yl)benzoate] | No | No | –
13 | O=C(O)c1ccc(COc2ccc3c(=O)c(-c4ccc(O)cc4)coc3c2)cc1 [PT-36, 4-{[3-(4-hydroxyphenyl)-4-oxochromen-7-yloxy]methyl}benzoic acid] | – | – | hMAO-A inhibition up to 40 μM (hMAO-A): No; hMAO-B inhibition up to 30 μM (hMAO-B): No
14 | NC(=O)c1ccc(COc2ccc3c(=O)c(-c4ccc(O)cc4)coc3c2)cc1 [PT-37, 4-{[3-(4-hydroxyphenyl)-4-oxochromen-7-yloxy]methyl}benzamide] | – | – | hMAO-A inhibition up to 30 μM (hMAO-A): No; hMAO-B inhibition up to 30 μM (hMAO-B): No
15 | O=c1c(-c2ccc(O)cc2)coc2cc(OCc3noc(-c4ccc(C(F)(F)F)cc4)n3)ccc12 [PT-38, 3-(4-hydroxyphenyl)-7-({5-[4-(trifluoromethyl)phenyl](1,2,4-oxadiazol-3-yl)}methoxy)chromen-4-one] | – | – | hMAO-A inhibition up to 30 μM (hMAO-A): No; hMAO-B inhibition up to 30 μM (hMAO-B): No
16 | O=c1c(-c2ccc(O)cc2)coc2cc(OCc3noc(-c4cc(C(F)(F)F)cc(C(F)(F)F)c4)n3)ccc12 [PT-39, 7-({5-[3,5-bis(trifluoromethyl)phenyl](1,2,4-oxadiazol-3-yl)}methoxy)-3-(4-hydroxyphenyl)chromen-4-one] | No | No | –
17 | N#Cc1cccc(-c2nc(COc3ccc4c(=O)c(-c5ccc(O)cc5)coc4c3)no2)c1 [PT-40, 3-(3-{[3-(4-hydroxyphenyl)-4-oxochromen-7-yloxy]methyl}-1,2,4-oxadiazol-5-yl)benzenecarbonitrile] | No | No | –
18 | O=c1c(-c2ccc(O)cc2)coc2cc(OCc3nc(-c4ccccc4)no3)ccc12 [PT-43, 3-(4-hydroxyphenyl)-7-[(3-phenyl(1,2,4-oxadiazol-5-yl))methoxy]chromen-4-one] | – | – | hMAO-A inhibition up to 30 μM (hMAO-A): No; hMAO-B inhibition up to 30 μM (hMAO-B): No
19 | O=c1c(-c2ccc(O)cc2)coc2cc(OCc3nc(-c4ccc(Cl)cc4)no3)ccc12 [PT-44, 3-(4-hydroxyphenyl)-7-({3-[4-chlorophenyl](1,2,4-oxadiazol-5-yl)}methoxy)chromen-4-one] | – | – | hMAO-A inhibition up to 30 μM (hMAO-A): No; hMAO-B inhibition up to 30 μM (hMAO-B): No

Further lines, with some results ahead:

Row | hMAO-A inhibition up to 10 μM (hMAO-A) | hMAO-B inhibition up to 10 μM (hMAO-B) | SMILES | other results
20 | No | No | O=C(O)c1cccc(-c2nc(COc3ccc4c(=O)c(-c5ccc(O)cc5)coc4c3)no2)c1 [PT-41, 3-(3-{[3-(4-hydroxyphenyl)-4-oxochromen-7-yloxy]methyl}-1,2,4-oxadiazol-5-yl)benzoic acid] | –
21 | No | No | O=c1c(-c2ccc(O)cc2)coc2cc(OCc3noc(-c4cccc(F)c4)n3)ccc12 [PT-42, 7-{[5-(3-fluorophenyl)(1,2,4-oxadiazol-3-yl)]methoxy}-3-(4-hydroxyphenyl)chromen-4-one] | –
22 | No | – | O=c1c(-c2ccc(O)cc2)coc2cc(OCc3cc(-c4cc(C(F)(F)F)cc(C(F)(F)F)c4)on3)ccc12 [PT-62, 7-({5-[3,5-bis(trifluoromethyl)phenyl]isoxazol-3-yl}methoxy)-3-(4-hydroxyphenyl)chromen-4-one] | hMAO-B inhibition at 10 μM (hMAO-B): no
23 | 36% | – | C[C@H](NC(=O)COc1ccc2c(=O)c(-c3ccc(O)cc3)coc2c1)c1ccc(F)cc1 [PT-103, N-[(1S)-1-(4-fluorophenyl)ethyl]-2-[3-(4-hydroxyphenyl)-4-oxochromen-7-yloxy]acetamide] | –
24 | 26% | – | O=c1c(-c2ccc(O)cc2)coc2cc(OC[C@H](O)Cc3ccccc3)ccc12 [PT-109, 7-((2R)-2-hydroxy-3-phenylpropoxy)-3-(4-hydroxyphenyl)chromen-4-one] | –
25 | No | – | CS(=O)(=O)Nc1ccc(-c2c(O)oc3cc(OCc4cccc(C(=O)O)c4)ccc3c2=O)cc1 [PT-111, 3-[(2-hydroxy-3-{4-[(methylsulfonyl)amino]phenyl}-4-oxochromen-7-yloxy)methyl]-benzoic acid] | –
